Assay results from patent publication US7049331B2, “1,2,4-thiadiazole derivatives as melanocortin receptor modulators” (Ortho-McNeil Pharmaceutical, Inc., priority 2001, dated 2006).
Read-outs that look alike come from different tables or passages of the source.

What was measured:
[1] = target: T1, melanocortin MC-4 receptor (Homo sapiens, UniProt P32245); assay: MC-4 receptor binding (Filtration); details: Filtration; read-out: IC50 MC-4 (μM) (Filtration)
T1 construct: purchased Receptor Biology Inc
Protocol: The procedures described above for the melanocortin MC-4 receptor were repeated for the melanocortin MC-3 receptor. Following the procedures described, representative compounds of the present invention were tested for binding in the MC-4 and/or MC-3 assay, as listed in Table 4.

[2] = target: T1, melanocortin MC-4 receptor; assay: Melanocortin MC-4 Receptor Binding Assay (SPA)
Protocol: Melanocortin MC-4 Receptor Binding Assay Melanocortin [MC-4]-membrane [purchased from Receptor Biology Inc] was coupled to wheat germ agglutinin coated polyvinyl toluene-Scintillation Proximity Assay beads [purchased from Amersham Pharmacia Inc.] for 30 min at 25° C. Into each well of a 96-well Opti plate [purchased from Packard, Calif.], 2.5 μg of membrane and 0.25 mg of beads were mixed in a volume of 100 μL media. […] Test compounds (1.5 μL) at 1 mM in 30% DMSO-50 mM HEPES, pH 7.4 buffer was added to separate wells on the plate. Radioactive ligand ^125I-NDP-melanocyte stimulating hormone [NEN, 2000Ci/mmol] was added to each well (48.5 μL per well, 40 pM final concentration). The plate was then sealed and let stand for 16 hr at 25° C. NDP-Melanocyte stimulating hormone peptide and α-melanocyte stimulating hormone peptide [purchased from Palomar Research Inc, 1 μM] were used as reference inhibitor compounds to define non-specific binding (N). Total binding (T) was defined using 30% DMSO-50 mM HEPES, pH 7.4 buffer. Bound radioactivity for each well (Y), measured at counts per minute (cpm) was measured in a TopCount [Packard, Calif.]. Percent inhibition was calculated as: […] The procedures described above for the melanocortin MC-4 receptor were repeated for the melanocortin MC-3 receptor. Following the procedures described, representative compounds of the present invention were tested for binding in the MC-4 and/or MC-3 assay, as listed in Table 4.

[3] = tested on: Food-Deprived Rats; assay: Rodent Feeding: Food Intake in Food-Deprived Rats (MC-4); assay type: in vivo, rat; details: for change in vivo at 10 mg/kg / change in vivo at 30 mg/kg: Rattus norvegicus; for change in vivo at 30 mg/kg: po
Source text: Rodent Feeding: Food Intake in Food-Deprived Rats (MC-4)
Male Long-Evans rats (180–200 grams) were housed individually and maintained on a once-a-day feeding schedule (i.e.10 a.m. until 4 p.m.) for five days following quarantine to allow the animals to acclimate to feeding on powdered chow (#5002 PMI Certified Rodent Meal) during the allotted time. The chow was made available in an open jar, anchored in the cage by a wire, with a metal follower covering the food to minimize spillage. Water was available ad-libitum.
Animals were fasted for 18 hours prior to testing. At the end of the fasting period, animals were administered either a test compound or vehicle. Vehicle and test compound were administered either orally (5 mL/kg) 60 minutes prior to the experiment, subcutaneously (1 mL/kg) 30 minutes prior to the experiment, or intraperitoneally (1 mL/kg) 30 minutes prior to the experiment. Test compounds were administered orally as a suspension in aqueous 0.5% methylcellulose-0.4% Tween 80, or intraperitoneally as a solution or suspension in PEG 200; compound concentrations typically ranged from 1 mg/kg to 100 mg/kg, preferably from 10–30 mg/kg. Food intake was measured at 2, 4, and 6 hours after administration by weighing the special jar containing the food before the experiment and at the specified times. Upon completion of the experiment, all animals were given a one-week washout period before re-testing.
Following the procedure described above, select compounds of the present invention were tested to measure the effect on food intake in fasted rats, as listed in Table 5 and 6.

[4] = tested on: Hippocampal Cells; assay: Neurite Cell Outgrowth Assay, hippocampal cells; assay type: cell-based; details: Rattus norvegicus; 50 nM; percent change over the vehicle response; NA = no change/not active
Source text: (§1) Dissociated hippocampal and cortical cell cultures were established from embryonic day 18 rat fetuses as described by Mattson, M. P., Barger, S. W., Begley, J, and Mark, R. J., Methods Cell Biol., 1994, 46:[…]. Briefly, fetuses were removed via cesarean section from pregnant moms (Sprague-Dawley) and anesthetized with halothane according to the AVMA Panel on Euthanasia. Pups were decapitated and the brains were removed and placed in HEPES-buffered Hank's Balanced Salt solution (HBSS; Gibco). The hippocampi and cortices were dissected out and pooled according to tissue-type. Tissue was trypsinized for 15 min (1 mg/ml trypsin-HBSS; Worthington), rinsed with fresh HBSS, incubated in trypsin inhibitor (1 mg/ml; Sigma) for 5 min, rinsed again with fresh HBSS and then triturated in 1 ml fresh HBSS with a fire-polished glass pipette. Dissociated cells were seeded at 30,000 cells/well onto poly-D-lysine coated 96-well plates (Collaborative BioScience). Each well contained 100 μl of Eagle's Minimal Essential Media (MEM; Gibco) supplemented with 26 mM NaHCO3 (Sigma), 56 mM glucose (Sigma), 15 mM KCl (Sigma), 1 mM sodium pyruvate (Sigma), 1.1 mM L-glutamine (Sigma), 10% (v/v) heat-inactivated fetal bovine serum (Hyclone), and 0.001% gentamicin sulfate (Sigma) (pH 7.4). Cells were allowed to attach for 24 h in a humidified 37° C. 5% CO2 incubator before experimental treatment. The culture media was aspirated and exchanged with fresh media every 3 days.
(§2) Twenty-four hours after plating, cultures were treated with vehicle (PBS+0.1% BSA), alpha-melanocyte stimulating hormone (α-MSH) or test compound (diluted in DPBS). Each treatment condition was run in quadruplicate. On the third day in culture, the media was aspirated off and replaced with fresh media and test compound. At one week in culture, the cells were fixed with 10% phosphate-buffered formalin for 15 min, then rinsed with DPBS (Sigma) and placed in blocking serum for 30 min (horse serum; 1:50 dilution in DPBS; Vector Labs). The cultures were rinsed again with DPBS and then incubated in primary antibody for 2 hr (microtubule-associated protein-2 (MAP-2) is a selective marker for dendritic processes; anti-mouse monoclonal (Chemicon); 1:1000 dilution of MAP-2 in antibody diluent (Zymed)). Negative control wells were incubated in antibody diluent alone. Background signal was determined by blank wells (cell-free) incubated with or without antibody. Cultures were rinsed again with DPBS and then placed in fluorescein for 1 hr (FITC; anti-mouse IgG; rat adsorbed; 1:50 dilution in DPBS; Vector Labs). Cultures were rinsed a final time with DPBS and the plates were then read on a Cytofluor 4000 fluorescence plate reader. Neurite outgrowth was expressed as percent change from control (vehicle).
(§3) The data are expressed as percent change over the vehicle response. All compounds were screened at 50 nM. The abbreviation NA indicates no change/not active; the abbreviation ND indicates a compound not tested/response not determined.

[5] = tested on: Cortical Cells; assay: Neurite Cell Outgrowth Assay, cortical cells; assay type: cell-based; details: Rattus norvegicus; 50 nM; percent change over the vehicle response; NA = no change/not active
Source text: as §1, §2, §3

[6] = tested on: human sebocytes; assay: Visual observation of lipid granule formation in sebocytes; assay type: cell-based
Protocol: Semiconfluent cultures of 3T3 mouse fibroblasts (Swiss Albino mouse, ATCC CCL-92) were treated with mitomycin C (4 μg/ml) for 3 hours, trypsinized and seeded at a density of 2.5×10^5/9.5 cm^2 tissue culture plate in Dulbeccos Minimal Essential Medium (DMEM) containing 10% Colorado Calf Serum, PNC (100U/ml), STM (100 μg/ml), L glutamine (0.3 mg/ml), sodium pyruvate (1 mM) and nonessential amino acids (100 μM). The cells were incubated at 37° C. for 24 hours prior to their use as a feeder layer for sebocytes.
Human sebocytes were isolated from Dermatome shavings of postoperative pieces of human skin at 0.4–0.8 mm depths (this part of the skin was previously shown to be enriched in sebaceous glands). Shavings so obtained were treated with 1% Dispase in Iscoves medium containing 10% serum for 20 min at 37° C. The tissue was then placed in 0.3% trypsin/1% EDTA in Phosphate Buffered Saline (PBS) for 10 minutes at 37° C. Following this incubation the cells were gently scraped from the tissue in Growth medium (GM) containing DMEM/F12 media mixture (3:1), supplemented with 8% heat inactivated FBS, 2% heat inactivated human serum (HS), 1 mM sodium pyruvate, epidermal growth factor (10 ng/ml), insulin (10 μg/ml), hydrocortisone (0.4 μg/ml) and +/−cholera toxin (100 μg/ml), L-glutamine and antibiotics. Cells so obtained were filtered through nylon mesh ([…]), centrifuged at 750 RPM, re-suspended in GM and counted.
Resultant cells from the above isolation procedure were plated on the 3T3 feeder layers at 2×10^5/9.5 cm^2 in growth medium and maintained at 37° C. and 5% CO2 for 3 days (Phase I). Following the initial growth period they were transferred to a transition medium (TM) that consisted of DMEM/F12 media supplemented with 1 mM sodium pyruvate, insulin ([…]), transferrin ([…]) and selenium (5.5 μg/ml) (ITS), 2% heat inactivated FBS and 2% heat inactivated human serum as well as +/−cholera toxin (ch.t.) (100 μg/ml), L-glutamine and antibiotics (Phase II). Three days later the cells were changed to differentiation medium (DM), DMEM/F12 supplemented with ITS, 3,3′,5-triido-L-thyronine sodium (3 nM), 1%(v/v) trace element mix and the choice of differentiation agent i.e. bovine pituitary extract (10 μg/ml). This medium was changed every 3 days (Phase III).
Hormones, mixture of hormones i.e. bovine pituitary extract or compounds to be tested were added to the culture at the beginning of phase III. Two criteria were used to evaluate the effect of these materials on sebaceous cultures: 1) visual observations and 2) evaluation of sebaceous lipid accumulation and synthesis. The evaluation of lipid accumulation completed using the Nile red method. This method relies on visualization of neutral lipids by Nile red and quantitation by reading of fluorescence at 535 nm excitation, 580 nm emission using a plate reader. The lipid synthesis was evaluated by radioactive labeling using ^14C acetate and quantified by Bio Rad Phosphoimager (Molecular Imager, FX) using 4.1 Software.
Quantitation of accumulation/inhibition of neutral lipids in sebocytes was accomplished by Nile red binding assay. Briefly, following exposure of sebocytes to test compounds, the cells were allowed to interact with 1 μM Nile red in Hanks buffered saline solution containing DMSO and Pluronic F127. After 4 hours of incubation, washing and incubation overnight, the fluorescence was read at 535 excitation and 580 emission using a fluorescence plate reader.
Following the procedure described above, select compounds of the present invention were tested for visual and Nile red evaluation of lipid accumulation, with results as listed in Table 9.
Following the procedure described above, select compounds of the present invention were tested for their inhibitory effect on differentiation of human sebocytes. […]

[7] = target: MC5-R (Homo sapiens, UniProt P33032); assay: MC5-R binding
Sequence of MC5-R (P33032 whole entry): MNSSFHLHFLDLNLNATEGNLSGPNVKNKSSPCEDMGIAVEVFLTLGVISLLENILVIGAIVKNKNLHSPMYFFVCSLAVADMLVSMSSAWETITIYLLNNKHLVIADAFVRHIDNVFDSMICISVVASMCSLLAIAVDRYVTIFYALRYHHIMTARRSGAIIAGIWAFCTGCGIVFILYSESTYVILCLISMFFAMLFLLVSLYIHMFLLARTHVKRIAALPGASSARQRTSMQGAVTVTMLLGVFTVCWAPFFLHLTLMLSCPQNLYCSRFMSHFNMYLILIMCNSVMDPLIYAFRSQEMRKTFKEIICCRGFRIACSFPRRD

T1 sequence (P32245 whole entry): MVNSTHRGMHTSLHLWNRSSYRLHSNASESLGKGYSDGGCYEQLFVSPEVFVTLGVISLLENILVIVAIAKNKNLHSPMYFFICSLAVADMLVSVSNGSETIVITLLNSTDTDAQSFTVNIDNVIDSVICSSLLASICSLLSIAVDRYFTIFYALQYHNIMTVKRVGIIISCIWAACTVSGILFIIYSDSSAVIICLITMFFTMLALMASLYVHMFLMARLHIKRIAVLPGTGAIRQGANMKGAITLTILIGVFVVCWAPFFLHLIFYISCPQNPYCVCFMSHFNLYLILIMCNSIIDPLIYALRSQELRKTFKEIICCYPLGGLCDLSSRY

| SMILES | IC50 [1] | IC50 [2] | change in vivo at 10 mg/kg ([3]; ip, 2 h, ip, read-out: Change in Food Intake 0–2 hrs (%)) | change in vivo at 10 mg/kg ([3]; ip, 6 h, ip, read-out: Change in Food Intake 2–6 hrs (%)) | change in vivo at 30 mg/kg ([3]; 2 h, read-out: Change in Food Intake 0–2 hrs (%)) | change in vivo at 30 mg/kg ([3]; 6 h, read-out: Change in Food Intake 2–6 hrs (%)) | Food Intake 2–6 hrs ([3]; fasted rats, 10μ, ip) | Food Intake 0–2 hrs ([3]; fasted rats, ip) | activation at 0.05 µM [4] | activation at 0.05 µM [5] | Visual* 0.4 μM (inhibition of lipid granule formation) ([6]; 0.4 μM) | Visual* 0.8 μM (inhibition of lipid granule formation) ([6]; 0.8 μM) | IC50 [7] |
| --- | --- | --- | --- | --- | --- | --- | --- | --- | --- | --- | --- | --- | --- |
| COc1ccc(Nc2nc(-c3ccccc3)[n+](-c3ccc(C)cc3)s2)cc1 [Compound 1] | 1.1 µM | 174 nM | -11.6% | -37% | -21.2% | -6.7% | 8.43 g | 7.29 g | 6% | – | – | – | – |
| COc1ccc(Nc2nc(-c3ccccc3)[n+](-c3ccc(Cl)cc3)s2)cc1 [Compound 16] | 4.3 µM | 424 nM | – | – | – | – | – | – | 8% | 18% | – | – | – |
| COc1ccccc1Nc1nc(-c2ccccc2)[n+](-c2ccc(Cl)cc2)s1 [Compound 17] | 7.7 µM | 351 nM | – | – | – | – | – | – | 8% | 17% | – | – | – |
| Cc1ccc(Nc2nc(-c3ccccc3)[n+](-c3ccc(Cl)cc3)s2)cc1 [Compound 18] | 6 µM | 463 nM | – | – | – | – | – | – | 17% | 17% | – | – | – |
| Clc1ccc(-[n+]2sc(Nc3ccccc3Cl)nc2-c2ccccc2)cc1 [Compound 21] | 7.8 µM | 392 nM | – | – | – | – | – | – | 27% | 2% | – | – | – |
| COc1ccccc1Nc1nc(-c2ccc(C)cc2)[n+](-c2ccccc2OC)s1 [Compound 67] | – | 130 nM | – | – | – | – | – | – | – | – | ++ (++ =50%) | +++ (+++ = 75%) | 246 nM |
| Cc1ccc(-n2s/c(=N/c3ccccc3)nc2-c2ccccc2)cc1 [Compound 82] | 1.5 µM | 826 nM | – | – | – | – | – | – | 14% | 15% | – | – | – |
| COc1ccc(/N=c2\nc(-c3ccccc3)n(-c3ccc(C)cc3)s2)cc1 [Compound 83] | 1.9 µM | 833 nM | – | – | – | – | – | – | 11% | 9% | – | – | – |
